Results: patent US20160242416A1, “FUNGICIDAL ISOXAZOLINE CARBINOLS” (E I DU PONT DE NEMOURS AND COMPANY, priority 2015, published 2016)
Read-outs that look alike come from different tables or passages of the source.

Columns and labels:
Zymoseptoria tritici = assay: Test E: wheat leaf blotch, preventive spray on wheat seedlings; settings: wheat leaf blotch, 100 = 100% disease control, 0 = no control
[1] = test system: Puccinia recondita f sp. tritici; assay: Test F: wheat leaf rust, preventive spray on wheat seedlings; settings: wheat leaf rust, 100 = 100% disease control, 0 = no control
Phytophthora infestans = type: in vivo; settings: tomato late blight, 100 = 100% disease control, 0 = no control
Stagonospora nodorum = assay: Test D: wheat glume blotch, preventive spray on wheat seedlings; settings: wheat glume blotch, 100 = 100% disease control, 0 = no control
Botrytis cinerea = assay: Test B: gray mold, preventive spray on tomato seedlings; settings: gray mold on tomato, 100 = 100% disease control, 0 = no control
Text: General protocol for preparing test solutions for Tests A-G: the test compounds were first dissolved in acetone in an amount equal to 3% of the final volume and then suspended at the desired concentration (in ppm) in acetone and purified water (50/50 mix by volume) containing 250 ppm of the surfactant PEG400 (polyhydric alcohol esters). The resulting test suspensions were then used in Tests A-G. Compounds were sprayed at a concentration of 50 ppm (*) or 10 ppm to the point of run-off on the test plants, the equivalent of a rate of 200 g/ha or 40 g/ha, respectively.
The test solution was sprayed to the point of run-off on tomato seedlings. The following day the seedlings were inoculated with a spore suspension of Botrytis cinerea (the causal agent of gray mold on many crops) and incubated in a saturated atmosphere at 20° C. for 48 h, and moved to a growth chamber at 27° C. for 2 days, after which time visual disease ratings were made.
Compounds with an asterisks (*) were applied at a concentration of 50 ppm, otherwise test solutions were applied at 10 ppm.

Plasmopara viticola = assay: Test A: grape downy mildew, preventive spray on grape seedlings; type: in vivo; settings: 10 ppm, 100 = 100% disease control, 0 = no control
Text: A dash (-) indicates no test results.

[2] = test system: Erysiphe graminis f sp. tritici; assay: Test G: wheat powdery mildew, preventive spray on wheat seedlings; settings: wheat powdery mildew, 100 = 100% disease control, 0 = no control

| Compound | Test E rating (% disease control) (Zymoseptoria tritici; 10 ppm) [%] | Test F rating (% disease control) ([1]; 10 ppm) [%] | Test C rating (% disease control) (Phytophthora infestans; 10 ppm) [%] | Test D rating (% disease control) (Stagonospora nodorum; 10 ppm) [%] | Test B rating (% disease control) (Botrytis cinerea; 10 ppm) [%] | Test A rating (% disease control) (Plasmopara viticola) [%] | Test G rating (% disease control) ([2]; 10 ppm) [%] | Test E rating (% disease control) (Zymoseptoria tritici; 50 ppm (asterisk)) [%] | Test F rating (% disease control) ([1]; 50 ppm (asterisk)) [%] | Test C rating (% disease control) (Phytophthora infestans; 50 ppm (asterisk)) [%] | Test D rating (% disease control) (Stagonospora nodorum; 50 ppm (asterisk)) [%] | Test B rating (% disease control) (Botrytis cinerea; 50 ppm (asterisk)) [%] | Test G rating (% disease control) ([2]; 50 ppm (asterisk)) [%] |
| --- | --- | --- | --- | --- | --- | --- | --- | --- | --- | --- | --- | --- | --- |
| OC(Cn1cncn1)(C1=NOC(c2ccc(-n3cncn3)cc2)C1)c1ccc(Cl)cc1 (mixture of isomers) [Compound 2] | 0 | 100 | 0 | 0 | 0 | 33 | 99 | – | – | – | – | – | – |
| CC1(c2ccc(Cl)cc2)CC(C(O)(Cn2cncn2)c2ccccc2)=NO1 (single isomer, unassigned) [Compound 211] | – | – | – | – | – | – | – | 0 | 28 | 0 | 0 | 0 | 76 |
| OC(Cc1ccc(Cl)cc1)(Cn1cncn1)C1=NOC(c2ccc(Cl)cc2)C1 (single isomer, unassigned) [Compound 93] | 4 | 100 | 0 | 99 | 0 | 0 | 100 | – | – | – | – | – | – |
| OC(Cn1cncn1)(C1=NOC(c2ccc(Cl)cc2)C1)c1ccc(Cl)cc1 (single isomer, unassigned) [Compound 120] | – | – | – | – | – | – | – | 8 | 100 | 0 | 95 | 0 | 98 |
| CC(C)(C)C(O)(Cn1cncn1)C1=NOC(c2ccc(Cl)cc2)C1 (single isomer, unassigned) [Compound 133] | – | – | – | – | – | – | – | 88 | 100 | 0 | 100 | 95 | 99 |
| OC(Cn1cncn1)(C1=NOC(Cn2ccc(-c3ccc(C(F)(F)F)cc3)n2)C1)c1ccc(Cl)cc1 (single isomer, unassigned) [Compound 67] | 0 | 100 | 0 | 0 | 0 | 13 | 99 | – | – | – | – | – | – |
| CC1(c2ccc(Cl)cc2)CC(C(O)(Cn2cncn2)c2ccc(Cl)cc2)=NO1 (single isomer, unassigned) [Compound 213] | – | – | – | – | – | – | – | 0 | 99 | 0 | 52 | 7 | 96 |
| CC(C)(C)C1CC(C(O)(Cn2cncn2)c2ccccc2)=NO1 (single isomer, unassigned) [Compound 125] | – | – | – | – | – | – | – | 0 | 28 | 0 | 0 | 0 | 89 |
| OC(Cn1cncn1)(C1=NOC(c2ccc(Cl)cc2)C1)c1ccccc1 (mixture of isomers) [Compound 117] | – | – | – | – | – | – | – | 11 | 99 | 0 | 100 | 61 | 98 |
| CC(C)(C)C(O)(Cn1cncn1)C1=NOC(c2ccc(Cl)cc2)C1 (single isomer, unassigned) [Compound 132] | – | – | – | – | – | – | – | 81 | 100 | 0 | 100 | 99 | 100 |
| OC(Cn1cncn1)(C1=NOC(c2c(F)cccc2F)C1)c1ccccc1 (mixture of isomers) [Compound 1] | – | – | – | – | – | – | – | 18 | 99 | 0 | 99 | 0 | 100 |
| OC(Cn1cncn1)(C1=NOC(c2ccc(Cl)cc2)C1)c1ccc(F)cc1F (single isomer, unassigned) [Compound 131] | – | – | – | – | – | – | – | 5 | 100 | 0 | 100 | 0 | 100 |
